Patent publication US20210007356A1, “IMIDE DERIVATIVE AND FUNGICIDE CONTAINING SAID DERIVATIVE AS ACTIVE INGREDIENT” (HOKKO CHEMICAL INDUSTRY CO., LTD., priority 2018, published 2021)
Like-named read-outs stand apart in the source and are kept apart here.

Experiments:
[1] = tested on: rice blast fungus (Pyricularia grisea); type: in vivo; conditions: flowable diluted to 100 ppm, 10 mL per pot foliage spray on paddy rice; inoculated day after; 7 days after inoculation
[2] = tested on: rice sheath blight fungus (Thanatephorus cucumeris); experiment: Test Example 10: control effect against rice sheath blight by water surface application (flowable formulation); conditions: flowable 1,000 ppm, 1 mL dripped in paddy water, inoculated after 1 week, 7 days after inoculation
Experimental: (§1) Control value (%)=[1−(lesion height in sprayed plot/lesion height in unsprayed plot)]×100 (d)
By dripping treatment in paddy water, 1 mL of a diluted solution (1,000 ppm) of a flowable prepared according to Formulation Example-3 was applied to a 5-leaf-stage paddy rice (variety: Asahi) seedling (5 seedlings/stub, one stub/pot) grown in a pot ( 1/10000 are in size) filled with paddy soil (flooded) within a greenhouse. After growing for 1 week within a greenhouse, a culture of rice sheath blight fungus (Thanatephorus cucumeris) grown in advance on a rice straw medium was inoculated into the root of the formulation-treated paddy rice, and disease development was promoted in an artificial weather chamber at 26° C. (relative humidity=100%). Seven days after the inoculation, the rice sheath blight lesion height (height from the root) was examined, and the control value (%) was calculated according to formula (d). […] This test was performed with three replications, each consisting of one plot and one pot, per one formulation plot, and its average evaluation value of control effect was determined.

[3] = tested on: rice sheath blight fungus (Thanatephorus cucumeris); experiment: Test Example 6: control effect against rice sheath blight by box treatment (flowable formulation); conditions: flowable 5,000 ppm, 50 mL irrigation of nursery box, paddy rice; inoculated after 3 weeks; 7 days after inoculation
Experimental: as §1
By irrigation, 50 mL of a diluted solution (5,000 ppm) of a flowable prepared according to Formulation Example-3 was applied to a 2.5-leaf-stage paddy rice (variety: Asahi) seedling raised using a nursery box ( 1/10 the area of standard nursery box in size: 12 cm×15 cm×height 4 cm) within a greenhouse. The formulation-treated paddy rice seedling was immediately transplanted at 5 seedlings/pot into a pot ( 1/10000 are in size) filled with paddy soil (flooded). After growing for 3 weeks within a greenhouse, a culture of rice sheath blight fungus (Thanatephorus cucumeris) grown in advance on a rice straw medium was inoculated into the root of the formulation-treated paddy rice, and disease development was promoted in an artificial weather chamber at 26° C. (relative humidity=100%). Seven days after the inoculation, the rice sheath blight lesion height (height from the root) was examined, and the control value (%) was calculated according to formula (d). […] This test was performed with three replications, each consisting of one plot and one pot, per one formulation plot, and its average evaluation value of control effect was determined.

[4] = tested on: barley powdery mildew fungus (Erysiphe graminis); experiment: Test Example 2: control effect against barley powdery mildew by foliage application; type: in vivo; conditions: wettable powder diluted to 100 ppm, 10 mL per pot foliage spray on barley; inoculated day after; 7 days after inoculation
[5] = tested on: rice sheath blight fungus (Thanatephorus cucumeris); experiment: Test Example 8: control effect against rice sheath blight by box treatment (granule); conditions: 5 g of granule on nursery box, paddy rice; inoculated after 3 weeks; 7 days after inoculation
Text: as §1
From the top of a nursery box, 5 g of a granule prepared according to Formulation Example-4 was applied to a 2.5-leaf-stage paddy rice (variety: Asahi) seedling raised using a nursery box ( 1/10 the area of standard nursery box in size: 12 cm×15 cm×height 4 cm) within a greenhouse. The formulation-treated paddy rice seedling was immediately transplanted at 5 seedlings/pot into a pot ( 1/10000 are in size) filled with paddy soil (flooded). After growing for 3 weeks within a greenhouse, a culture of rice sheath blight fungus (Thanatephorus cucumeris) grown in advance on a rice straw medium was inoculated into the root of the formulation-treated paddy rice, and disease development was promoted in an artificial weather chamber at 26° C. (relative humidity=100%). Seven days after the inoculation, the rice sheath blight lesion height (height from the root) was examined, and the control value (%) was calculated according to formula (d). […] This test was performed with three replications, each consisting of one plot and one pot, per one formulation plot, and its average evaluation value of control effect was determined.

[6] = tested on: rice blast fungus (Pyricularia grisea); type: in vivo; conditions: flowable 5,000 ppm, 50 mL irrigation of nursery box, paddy rice; inoculated after 3 weeks; 7 days after inoculation
[7] = tested on: rice blast fungus (Pyricularia grisea); type: in vivo; conditions: 5 g of granule on nursery box, paddy rice; inoculated after 3 weeks; 7 days after inoculation
[8] = tested on: rice blast fungus (Pyricularia grisea); type: in vivo; conditions: flowable 1,000 ppm, 1 mL dripped in paddy water, inoculated after 1 week, 7 days after inoculation

Cc1nn(C)c(F)c1C(=O)N(C(=O)c1snc(Cl)c1Cl)c1ccccc1C(C)CC(C)C (stereo not drawn) [1-131, 3,4-Dichloro-N-{2-(1,3-dimethylbutyl)phenyl}-N-(5-fluoro-1,3-dimethylpyrazole-4-carbonyl)isothiazole-5-carboxamide]
evaluation value of control effect (from control value, number of lesions) [1]: 4
evaluation value of control effect (from control value, lesion height) [2]: 5
evaluation value of control effect (from control value, lesion height) [3]: 5
evaluation value of control effect (from control value, lesion area percentage) [4]: 4
evaluation value of control effect (from control value, lesion height) [5]: 5

Cc1nn(C)c(F)c1C(=O)N(C(=O)c1scnc1C(F)F)c1ccccc1C(C)CC(C)C (stereo not drawn) [1-346]
evaluation value of control effect (from control value, number of lesions) [6]: 5
evaluation value of control effect (from control value, number of lesions) [7]: 5
evaluation value of control effect (from control value, number of lesions) [8]: 5
evaluation value of control effect (from control value, number of lesions) [1]: 4
evaluation value of control effect (from control value, lesion area percentage) [4]: 4

Cc1nnsc1C(=O)N(C(=O)c1cn(C)nc1C(F)F)c1ccccc1-c1cc(F)c(F)c(F)c1 [1-368]
evaluation value of control effect (from control value, number of lesions) [1]: 4
evaluation value of control effect (from control value, lesion height) [2]: 5
evaluation value of control effect (from control value, lesion height) [3]: 5
evaluation value of control effect (from control value, lesion area percentage) [4]: 4
evaluation value of control effect (from control value, lesion height) [5]: 5

Cc1nn(C)c(C)c1C(=O)N(C(=O)c1snc(Cl)c1Cl)c1ccccc1C(C)CC(C)C (stereo not drawn) [1-377]
evaluation value of control effect (from control value, number of lesions) [6]: 5
evaluation value of control effect (from control value, number of lesions) [7]: 5
evaluation value of control effect (from control value, number of lesions) [8]: 5
evaluation value of control effect (from control value, number of lesions) [1]: 4
evaluation value of control effect (from control value, lesion area percentage) [4]: 4

Cc1nn(C)c(Cl)c1C(=O)N(C(=O)c1snc(Cl)c1Cl)c1ccccc1C(C)CC(C)C (stereo not drawn) [1-378]
evaluation value of control effect (from control value, number of lesions) [6]: 5
evaluation value of control effect (from control value, number of lesions) [7]: 5
evaluation value of control effect (from control value, number of lesions) [8]: 5
evaluation value of control effect (from control value, number of lesions) [1]: 4

CC(C)CC(C)c1ccccc1N(C(=O)c1snc(Cl)c1Cl)C(=O)c1c(C(F)F)nn(C)c1Cl (stereo not drawn) [1-379]
evaluation value of control effect (from control value, number of lesions) [6]: 5
evaluation value of control effect (from control value, number of lesions) [7]: 5
evaluation value of control effect (from control value, number of lesions) [8]: 5
evaluation value of control effect (from control value, number of lesions) [1]: 4
evaluation value of control effect (from control value, lesion area percentage) [4]: 4

Cc1nnsc1C(=O)N(C(=O)c1cn(C)nc1C(F)(F)F)c1ccsc1C(C)CC(C)C (stereo not drawn) [5-19]
evaluation value of control effect (from control value, number of lesions) [6]: 5
evaluation value of control effect (from control value, number of lesions) [7]: 5
evaluation value of control effect (from control value, number of lesions) [8]: 5
evaluation value of control effect (from control value, number of lesions) [1]: 4
evaluation value of control effect (from control value, lesion area percentage) [4]: 5

Cc1nc(C(F)(F)F)c(C(=O)N(C(=O)c2snc(Cl)c2Cl)c2c(Br)cc(OC(F)(F)F)cc2Br)s1 [7-279]
evaluation value of control effect (from control value, number of lesions) [1]: 4
evaluation value of control effect (from control value, lesion height) [2]: 5
evaluation value of control effect (from control value, lesion height) [3]: 5
evaluation value of control effect (from control value, lesion area percentage) [4]: 4
evaluation value of control effect (from control value, lesion height) [5]: 5

Cc1nc(C(F)(F)F)c(C(=O)N(C(=O)c2sc(C)nc2C(F)(F)F)c2c(Br)cc(OC(F)(F)F)cc2Br)s1 [7-286]
evaluation value of control effect (from control value, number of lesions) [1]: 4
evaluation value of control effect (from control value, lesion height) [2]: 5
evaluation value of control effect (from control value, lesion height) [3]: 5
evaluation value of control effect (from control value, lesion area percentage) [4]: 4
evaluation value of control effect (from control value, lesion height) [5]: 5

CC(C)CC(C)c1ccccc1N(C(=O)c1cc(Cl)c(Cl)s1)C(=O)c1cccnc1C(F)F (stereo not drawn) [13-50]
evaluation value of control effect (from control value, number of lesions) [6]: 5
evaluation value of control effect (from control value, number of lesions) [7]: 5
evaluation value of control effect (from control value, number of lesions) [8]: 5
evaluation value of control effect (from control value, number of lesions) [1]: 4
evaluation value of control effect (from control value, lesion area percentage) [4]: 4

CC(C)CC(C)c1ccccc1N(C(=O)c1cccnc1CF)C(=O)c1snc(Cl)c1Cl (stereo not drawn) [13-56]
evaluation value of control effect (from control value, number of lesions) [6]: 5
evaluation value of control effect (from control value, number of lesions) [7]: 5
evaluation value of control effect (from control value, number of lesions) [8]: 5
evaluation value of control effect (from control value, number of lesions) [1]: 4
evaluation value of control effect (from control value, lesion area percentage) [4]: 4

CC(C)CC(C)c1ccccc1N(C(=O)c1cccnc1C(C)F)C(=O)c1snc(Cl)c1Cl (stereo not drawn) [13-57]
evaluation value of control effect (from control value, number of lesions) [6]: 5
evaluation value of control effect (from control value, number of lesions) [7]: 5
evaluation value of control effect (from control value, number of lesions) [8]: 5
evaluation value of control effect (from control value, number of lesions) [1]: 4

CC(C)CC(C)c1ccccc1N(C(=O)c1ccccc1C(F)F)C(=O)c1snc(Cl)c1Cl (stereo not drawn) [19-2]
evaluation value of control effect (from control value, number of lesions) [6]: 5
evaluation value of control effect (from control value, number of lesions) [7]: 5
evaluation value of control effect (from control value, number of lesions) [8]: 5
evaluation value of control effect (from control value, number of lesions) [1]: 4
evaluation value of control effect (from control value, lesion area percentage) [4]: 4

Cc1nc(C(F)F)c(C(=O)N(C(=O)c2cn(C)nc2C(F)F)c2cccc3c2C(C)CC3(C)C)s1 (stereo not drawn) [25-97]
evaluation value of control effect (from control value, number of lesions) [1]: 4
evaluation value of control effect (from control value, lesion height) [2]: 5
evaluation value of control effect (from control value, lesion height) [3]: 5
evaluation value of control effect (from control value, lesion area percentage) [4]: 4
evaluation value of control effect (from control value, lesion height) [5]: 5

Cc1nc(C(F)F)c(C(=O)N(C(=O)c2snnc2C)c2cccc3c2C(C)CC3(C)C)s1 (stereo not drawn) [26-49]
evaluation value of control effect (from control value, number of lesions) [6]: 5
evaluation value of control effect (from control value, number of lesions) [7]: 5
evaluation value of control effect (from control value, number of lesions) [8]: 5
evaluation value of control effect (from control value, number of lesions) [1]: 4
evaluation value of control effect (from control value, lesion area percentage) [4]: 4

Cc1nc(C(F)F)c(C(=O)N(C(=O)c2sc(C)nc2C(F)(F)F)c2cccc3c2C(C)CC3(C)C)s1 (stereo not drawn) [26-73]
evaluation value of control effect (from control value, number of lesions) [1]: 4
evaluation value of control effect (from control value, lesion height) [2]: 5
evaluation value of control effect (from control value, lesion height) [3]: 5
evaluation value of control effect (from control value, lesion area percentage) [4]: 4
evaluation value of control effect (from control value, lesion height) [5]: 5

Cc1nc(C(F)F)c(C(=O)N(C(=O)c2cc(Cl)nc(Cl)c2)c2cccc3c2C(C)CC3(C)C)s1 (stereo not drawn) [26-89]
evaluation value of control effect (from control value, number of lesions) [1]: 4
evaluation value of control effect (from control value, lesion height) [2]: 5
evaluation value of control effect (from control value, lesion height) [3]: 5
evaluation value of control effect (from control value, lesion area percentage) [4]: 4
evaluation value of control effect (from control value, lesion height) [5]: 5

CC1OC(C)(C)c2cccc(N(C(=O)c3ccccc3C(F)F)C(=O)c3snc(Cl)c3Cl)c21 (stereo not drawn) [28-4]
evaluation value of control effect (from control value, number of lesions) [6]: 5
evaluation value of control effect (from control value, number of lesions) [7]: 5
evaluation value of control effect (from control value, number of lesions) [8]: 5
evaluation value of control effect (from control value, number of lesions) [1]: 4
evaluation value of control effect (from control value, lesion height) [2]: 5
evaluation value of control effect (from control value, lesion height) [3]: 5
evaluation value of control effect (from control value, lesion height) [5]: 5
